{"source": "patent US20060115426A1", "about": "“Methods of detecting breast cancer, brain cancer, and pancreatic cancer” (priority 2004, published 2006)", "key": {"[1]": {"tested_on": "C6 gliomas", "assay": "Biodistribution (tissue distribution) of 125I-NM404 in glioma-bearing rats", "format": "in vivo, rat", "conditions": "for Tumor/brain ratio: based on % injected dose/g; for tissue distribution, Thyroid: indicator of in vivo deiodination", "protocol": "(§1) Glioma tumor model: All animals were housed and handled in accordance with the University of Wisconsin Research Animal Resources Center guidelines. Rat C6 glioma cells were propagated in DMEM medium (Life Technologies, Gaithersburg, Md.) supplemented with 10% heat-inactivated FBS (BioWhittaker, Walkersville, MD), 100 U/ml penicillin-G, 100 μg/ml streptomycin, and 0.01 M hepes (Life Technologies, Gaithersburg, Md.). Intracranial tumor implantation was performed as described in Badie B, et al. J. Neuroimmunol. 133:39-45, 2002. Briefly, 1×10^6 C6 cells were resuspended in 5 μl of 1.2% methylcellulose and injected into the frontal lobes of anesthetized female Wistar rats (Harlan, Indianapolis, Ind.). Sham-operated animals received intracranial injections of an equal volume of methylcellulose without tumor cells.\nBiodistribution studies: Rats bearing C6 gliomas (n=4, 10 day old tumors), and sham-operated rats (n=3) were injected with ^125I-NM404 (15 μCi/200 g rat) and biodistribution studies performed as described in Rampy M A, et al. J. Med. Chem. 38:3156-3162, 1995. Accordingly, animals were euthanized by exsanguination at 24, 48, and 96 hours following injection. A total of 17 tissues including blood, plasma, adrenal glands, bladder wall, bone marrow, brain, eye lens, fat, heart, kidney, liver, lung, muscle, spleen, skin, thyroid, and tumor were excised, rinsed, and dissected free of extraneous tissue. Tissues were minced and duplicate samples weighed and placed in plastic tubes for isotope counting in a gamma counter (Perkin Elmer/Wallac Wizard-1470). Injection site and residual carcass radioactivity were determined in a well counter (Capintec CRC-15R). Time normalized tissue distribution tables were generated by a custom computer program which produces decay-corrected tissue radioactivity concentration data on a percent injected dose/g, […], and percent injected dose/organ±SEM basis."}, "[2]": {"tested_on": "pancreatic adenocarcinomas", "assay": "Bioscan imaging of 125I-NM404 in c-myc spontaneous pancreatic adenocarcinoma model", "format": "in vivo, mouse", "conditions": "c-myc transgenic mice, adenocarcinomas 5-12 mm in diameter", "description": "Mouse Pancreatic Adenocarcinoma Models: Two murine strains that are transgenic for either c-myc or k-ras, well-known oncogenes, have been developed at the University of Wisconsin (Sandgren E P, et al. Proc. Natl. Acad. Sci. USA 88:93-97, 1991 and Grippo P J, et al. Cancer Research 63:2016-2019, 2003). Expression of c-myc is targeted to pancreatic acinar cells because it is linked to an elastase promoter, which is only expressed in the pancreas. These ela-1-myc transgenic mice develop acinar and ductal neoplasia, which results in death between 2 and 7 months of age. By one month of age, the pancreas appears thickened and firm. Thus mice between the ages of 1-3 months serve as excellent models for the study of pancreatic cancer. Most human pancreatic neoplasms have a ductal morphology, and Dr. Sandgren's transgene targeting strategies are aimed at developing tumors that are specific for pancreatic ductal epithelium.\nImaging Studies: In order to determine if NM404 localizes in mouse pancreatic tumors, six c-myc transgenic mice were scanned on a Bioscan AR-2000 radioTLC scanner (modified by inventors for mouse imaging) from 2-21 days after tail vein injection of ^[…] (15 μCi/20 g body weight). […] At sacrifice, tissues were excised, weighed, and radioactivity quantitated in a gamma counter."}, "[3]": {"tested_on": "viable tumor cells", "assay": "Autoradiography experiments in other tumor models", "format": "in vivo", "conditions": "versus normal or necrotic tissues"}, "[4]": {"tested_on": "spontaneous mammary carcinomas", "assay": "Bioscan imaging of 125I-NM404 in Apc Min/+ endogenous mammary adenocarcinoma model", "format": "in vivo, mouse", "description": "Apc^Min/+ Mouse Model: This model is comprised of mice carrying the Min allele of Apc (Apc^Min/+ mice) and the type of lesions that appear in these mice are molecularly and histologically similar to breast cancer in humans. This model offers specific advantages over xenograft models in that female Apc^Min/+ mice are predisposed to developing mammary hyperplasias and carcinomas and intestinal adenomas. On the C57BL6/J genetic background, about 5% of untreated females will develop a mammary tumor by 100 days of age (Moser A R, et al. Proc. Natl. Acad. Sci. USA 90:8977-81, 1993). The incidence and multiplicity of the mammary lesions can be increased by a single dose of ethylnitrosourea (ENU), a direct acting alkylating agent. Treatment with ENU results in 90% of B6 Apc^Min/+ females developing an average of 3 mammary squamous cell carcinomas (SCC), but few hyperplasic lesions within 60 days after treatment.\nGenetic background can affect the incidence, latency, and type of mammary lesions that develop. For example, FVBxB6 Apc^Min/+ female mice develop an average of 0.2 mammary tumors per mouse, but 4 hyperplasias per mouse within 120 days of treatment. BALB/xB6 Apc^Min/+ develop an average of 1.8 mammary tumors and 0.6 hyperplasias per mouse (Moser A R, et al. Cancer Research 61:3480-3485, 2001). FVBxB6 and BALBxB6 Apc^Min/+ mice develop both mammary SCC and adenocarcinomas (AC).\nImaging Studies: NM404 (100 μg) was radioiodinated with ^125I via isotope exchange in a melt of privalic acid. Following HPLC purification it was dissolved in an aqueous 2% tween-20 solution prior to tail vein injection (15 μCi/20 g mouse) into 6 female Apc^Min/+ mice. Mice were anesthetized and scanned for up to 30 days post injection on a modified Bioscan AR2000 radio-TLC scanner (1 mm increments at 2 mm acquisition/lane and 1 mm high-resolution collimator) and also in an ImTek microCT scanner (390 steps) for anatomic comparison. […] At sacrifice, mammary glands or excised tumors were imaged ex vivo, lesions were excised, weighed, and radioactivity quantitated. Lesion samples were submitted for histological classification. If necessary a long-acting CT blood pool contrast agent (BP20), as described in Weichert J P, et al. Radiology 216:865-871, 2000 and suitable for long microCT acquisitions times, was injected intravenously prior to CT scanning in order to assist in blood vessel visualization (FIG. 3)."}, "[5]": {"tested_on": "C6 gliomas", "assay": "Bioscan imaging of excised brains of C6 glioma-bearing and sham-operated rats", "format": "in vivo, rat", "protocol": "as §1\nImaging studies: Ten days after implantation rats were screened for the presence of intracranial tumors with MRI as described in Badie B, et al. Clin. Cancer Res. 9:872-877, 2003. […]\nNM404 (100 μg) was radioiodinated with ^125I via isotope exchange in a melt of pivalic acid (Weichert J P, et al. Int J Appl Rad Isotopes 37:907-913,1986). […] Co-registered Bioscan images and digital photographs were fused (Corel Photo-Paint) in order to accurately determine the location of radioactivity. […]"}, "[6]": {"tested_on": "CNS-1 brain tumor xenografts", "assay": "MicroPET evaluation of 124I-NM404 in rat CNS-1 brain tumor model", "format": "in vivo", "conditions": "CNS-1 rats", "protocol": "NM404 was radiolabeled with ^124I in excellent radiochemical yield (>60% isolated yield, >99% purity) via isotope exchange reaction of stable NM404 with sodium-iodide (Eastern Isotopes, Sterling Va.). Following preparative HPLC purification ^124I-NM404 was solubilized in 2% Tween-20 and filtered (0.22 micron). NM404 (130-200 μCi in 0.1 ml) was injected (i.v., tail vein) into 6 rats with CNS-1 brain tumor xenografts. MicroPET images (Concorde Microsystems-P4, 30 min acquisition) were acquired immediately after and at 6 h, 24 h, and 96 h post injection. Contrast-enhanced MRI images were obtained immediately following the final PET scan and PET/MRI images were manually fused using Amira (V3.1, TGS, Inc). Rats were euthanized and brain tissue subjected to histopathologic analysis."}, "[7]": {"conditions": "Apc Min/+ mice, Bioscan imaging"}}, "note": "Entries after “also recorded” stand apart in the source; their conditions may differ.", "data": [{"compound": "C[N+](C)(C)CCOP(=O)([O-])OCCCCCCCCCCCCCCCCCCc1ccc(I)cc1", "note": "[NM404, 18-(p-iodophenyl)-octadecylphosphocholine]", "values": [{"measurement": "Tumor/brain ratio", "setting": "[1]; 24 h", "result": 10.6}, {"measurement": "tissue distribution, Thyroid", "setting": "[1]; 48 h, N = 1", "result": 2.3, "unit": "% injected dose/g tissue"}, {"measurement": "Tumor/brain ratio", "setting": "[1]; 48 h", "result": 12.0}, {"measurement": "tissue distribution, Thyroid", "setting": "[1]; 96 h, N = 2, ± SEM", "result": 9.0, "unit": "% injected dose/g tissue"}, {"measurement": "Tumor/brain ratio", "setting": "[1]; 96 h", "result": 7.8}, {"measurement": "retention in pancreatic adenocarcinomas", "setting": "[2]", "result": "> 21", "unit": "days"}, {"measurement": "uptake in pancreatic adenocarcinomas", "setting": "[2]; i.v. 15 μCi/20 g", "result": "striking uptake"}, {"measurement": "cells/tissues capable of accumulating NM404 (autoradiography)", "setting": "[3]", "result": "only viable tumor cells"}, {"measurement": "HPLC analysis of radioactive urine and feces", "setting": "[4]; Apc Min/+ mice after i.v. 125I-NM404", "result": "presence of metabolites and no parent NM404"}, {"measurement": "localization in focal alveolar (mammary) hyperplasias", "setting": "[4]; [7]", "result": "no corresponding focal activity; also recorded: did not localize"}, {"measurement": "localization in intestinal adenomatous polyps", "setting": "[4]; [7]", "result": "no uptake; also recorded: did not localize"}, {"measurement": "uptake in spontaneous mammary carcinomas", "setting": "[4]; Apc Min/+ mice, i.v. 125I-NM404 15 μCi/20 g, carcinomas 2-15 mm in diameter", "result": "> 20", "unit": "% dose/g"}, {"measurement": "tumor retention", "setting": "[4]; Apc Min/+ mice, mammary carcinomas, 21 days = predetermined study endpoint", "result": "> 21", "unit": "days"}, {"measurement": "tracer uptake in C6 gliomas on Bioscan images", "setting": "[5]; C6 glioma-bearing rats, 24-96 h after i.v. 125I-NM404 15 μCi/200 g", "result": "intense localization; also recorded: concentrated intensely"}, {"measurement": "radioactivity in normal brain tissue", "setting": "[5]; sham operated control rats", "result": "minimal"}]}, {"compound": "C[N+](C)(C)CCOP(=O)([O-])OCCCCCCCCCCCCCCCCCCc1ccc([124I])cc1", "note": "[^124 I-NM404]", "values": [{"measurement": "tumor uptake (microPET)", "setting": "[6]; 6 hours following injection", "result": "respectable tumor uptake"}, {"measurement": "concomitant normal brain tissue activity (microPET)", "setting": "[6]; any time point", "result": "Little to no"}, {"measurement": "tumor conspicuity (microPET)", "setting": "[6]; at either 24 or 96 hours", "result": "significant"}, {"measurement": "tumor uptake (microPET)", "setting": "[6]; within 30 minutes of i.v. injection", "result": "no tumor uptake"}]}, {"compound": "C[N+](C)(C)CCOP(=O)([O-])OCCCCCCCCCCCCCCCCCCc1ccc([125I])cc1", "note": "[^125I-NM404]", "values": [{"measurement": "tissue distribution, Blood", "setting": "[1]; 24 h, N = 1", "result": 1.83, "unit": "% injected dose/g tissue"}, {"measurement": "tissue distribution, Brain", "setting": "[1]; 24 h, N = 1", "result": 0.07, "unit": "% injected dose/g tissue"}, {"measurement": "tissue distribution, Glioma", "setting": "[1]; 24 h, N = 1", "result": 0.74, "unit": "% injected dose/g tissue"}, {"measurement": "tissue distribution, Kidney", "setting": "[1]; 24 h, N = 1", "result": 0.91, "unit": "% injected dose/g tissue"}, {"measurement": "tissue distribution, Liver", "setting": "[1]; 24 h, N = 1", "result": 0.77, "unit": "% injected dose/g tissue"}, {"measurement": "tissue distribution, Spleen", "setting": "[1]; 24 h, N = 1", "result": 0.80, "unit": "% injected dose/g tissue"}, {"measurement": "Tumor/brain ratio", "setting": "[1]; 24 h", "result": 10.6}, {"measurement": "tissue distribution, Blood", "setting": "[1]; 48 h, N = 1", "result": 1.16, "unit": "% injected dose/g tissue"}, {"measurement": "tissue distribution, Brain", "setting": "[1]; 48 h, N = 1", "result": 0.05, "unit": "% injected dose/g tissue"}, {"measurement": "tissue distribution, Glioma", "setting": "[1]; 48 h, N = 1", "result": 0.60, "unit": "% injected dose/g tissue"}, {"measurement": "tissue distribution, Kidney", "setting": "[1]; 48 h, N = 1", "result": 0.44, "unit": "% injected dose/g tissue"}, {"measurement": "tissue distribution, Liver", "setting": "[1]; 48 h, N = 1", "result": 0.30, "unit": "% injected dose/g tissue"}, {"measurement": "tissue distribution, Spleen", "setting": "[1]; 48 h, N = 1", "result": 0.33, "unit": "% injected dose/g tissue"}, {"measurement": "tissue distribution, Thyroid", "setting": "[1]; 48 h, N = 1", "result": 2.34, "unit": "% injected dose/g tissue"}, {"measurement": "Tumor/brain ratio", "setting": "[1]; 48 h", "result": 12.0}, {"measurement": "tissue distribution, Blood", "setting": "[1]; 96 h, N = 2, ± SEM", "result": "0.82 ± 0.01", "unit": "% injected dose/g tissue"}, {"measurement": "tissue distribution, Brain", "setting": "[1]; 96 h, N = 2, ± SEM", "result": "0.09 ± 0.02", "unit": "% injected dose/g tissue"}, {"measurement": "tissue distribution, Glioma", "setting": "[1]; 96 h, N = 2, ± SEM", "result": "0.70 ± 0.04", "unit": "% injected dose/g tissue"}, {"measurement": "tissue distribution, Kidney", "setting": "[1]; 96 h, N = 2, ± SEM", "result": "0.45 ± 0.05", "unit": "% injected dose/g tissue"}, {"measurement": "tissue distribution, Liver", "setting": "[1]; 96 h, N = 2, ± SEM", "result": "0.39 ± 0.01", "unit": "% injected dose/g tissue"}, {"measurement": "tissue distribution, Spleen", "setting": "[1]; 96 h, N = 2, ± SEM", "result": "0.33 ± 0.03", "unit": "% injected dose/g tissue"}, {"measurement": "tissue distribution, Thyroid", "setting": "[1]; 96 h, N = 2, ± SEM", "result": "9.06 ± 3.84", "unit": "% injected dose/g tissue"}, {"measurement": "Tumor/brain ratio", "setting": "[1]; 96 h", "result": 7.8}]}]}
